Assays:
Mus musculus [1] = test: (§1) Neuroprotective activity in transgenic mouse amyotrophic lateral sclerosis model harboring human SOD1 H46R mutant assessed as increase in survival rate at 0.5 mg/kg, ig administered daily starting at day of disease onset until disease end stage relative to control; assay type: functional
Mus musculus [2] = test: Neuroprotective activity in transgenic mouse amyotrophic lateral sclerosis model harboring human SOD1 H46R mutant assessed as increase in survival rate at 0.1 mg/kg, ig administered daily starting at day of disease onset until disease end stage relative to control; assay type: functional
Mus musculus [3] = test: as §1, with “ChAT-positive motor neurons loss” for “increase”, “anterior horn” for “survival rate”, “by immunostaining method (reference value: 43%)” for “relative to control”; assay type: functional
Mus musculus [4] = test: (§2) Neuroprotective activity in transgenic mouse amyotrophic lateral sclerosis model harboring SOD1 G94A mutant assessed as prolongation of survival at 10 ug/kg, administered through gastric tube daily started between day 88 to 106 of disease onset until disease end stage relative to control; assay type: functional
Mus musculus [5] = test: as §2, with “harboring human” for “harboring”, “H46R” for “G94A”, “1 to 100” for “10”, “121” for “88”, “130” for “106”; assay type: functional, Stomach
Mus musculus [6] = test: Neuroprotective activity in transgenic mouse amyotrophic lateral sclerosis model harboring SOD1 G93A mutant assessed as increase in survival rate at 60 mg/kg, administered via oral gavage started from first day of symptomatic onset until disease end stage relative to control; assay type: functional
Mus musculus [7] = test: (§3) Neuroprotective activity in transgenic mouse amyotrophic lateral sclerosis model harboring SOD1 G93A mutant assessed as death of motor neurons in lumbar spinal cord at 10 mg/kg, po measured at 7 days post disease onset by immunostaining method (reference value: 58%); assay type: functional
Mus musculus [8] = test: as §3, with “4” for “10”, “ip administered every other day started from postnatal day 40 until” for “po measured at 7 days post”, “end stage” for “onset”, “71%)” for “58%)”; assay type: functional
[9] = (§4) Neuroprotective activity in transgenic C57/BL6 mouse amyotrophic lateral sclerosis model harboring SOD1 G93A mutant assessed as upregulation of HSP70 levels in spinal cord at 4 mg/kg, ip administered twice weekly started from postnatal day 40 until disease end stage by Western blot method relative to control; assay type: functional, organism-based
[10] = as §4, with “HSP25” for “HSP70”; assay type: functional, organism-based
Mus musculus [11] = test: as §4, with “decrease in misfolded SOD1” for “upregulation of HSP70”, “immunoprecipitation” for “Western blot”; assay type: functional; parameters: scale not given: the % may be the effect or the level left

For Cc1cc(C)c(OCC(=O)Nc2nc(-c3ccccn3)cs2)c(C)c1, the Activity (Mus musculus [1]) was 16%, the Activity (Mus musculus [2]) was 11% and the Activity (Mus musculus [3]) was 23%.
Molecule Cc1cc(C)c(N(C)CC(=O)Nc2nc(-c3ccccn3)c[nH]2)c(C)c1.Cl.Cl.Cl has an Activity (Mus musculus [4]) of 14% and an Activity (Mus musculus [5]) of 20%.
Work on CCCCC1OC(=O)c2ccccc21 (racemic) [RAC-3-N-BUTYLPHTHALIDE] yielded an Activity (Mus musculus [6]) of 42%.
Work on O=C(/C=C/c1ccc(O)c(O)c1)OCCc1ccccc1 [CAFFEIC ACID PHENETHYL ESTER] yielded an Activity (Mus musculus [7]) of 10%.
Work on N=C(N)N/N=C/c1c(Cl)cccc1Cl [GUANABENZ] yielded an Activity (Mus musculus [8]) of 44%.
CC1=C(CO)C(=O)O[C@@H]([C@@H](C)[C@H]2CC[C@H]3[C@@H]4C[C@H]5O[C@]56[C@@H](O)C=CC(=O)[C@]6(C)[C@H]4CC[C@]23C)C1 [WITHAFERIN A] gave a fold change (FC) [9] of 2.2, a fold change (FC) [10] of 2.6 and an Activity (Mus musculus [11]) of 39%.
